Data from patent publication US11479802B2, “Assays for screening activity of modulators of members of the hydroxy steroid (17-beta) dehydrogenase (HSD17B) family” (Regeneron Pharmaceuticals, Inc., priority 2017, dated 2022).

Molecular target: T1, human HSD17B13 (Homo sapiens, UniProt Q7Z5P4)
T1 sequence (Q7Z5P4 20-300): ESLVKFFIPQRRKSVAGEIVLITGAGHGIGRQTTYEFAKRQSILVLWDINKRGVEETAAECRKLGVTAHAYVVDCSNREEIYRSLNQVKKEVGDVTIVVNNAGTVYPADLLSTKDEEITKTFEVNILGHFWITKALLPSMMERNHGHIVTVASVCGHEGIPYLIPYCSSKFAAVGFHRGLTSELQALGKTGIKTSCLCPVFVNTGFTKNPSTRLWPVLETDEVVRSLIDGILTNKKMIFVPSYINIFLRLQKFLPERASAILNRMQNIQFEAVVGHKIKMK
Assay: Substrate screening of steroid and bioactive lipid libraries against purified recombinant HSD17B13 (NADH-linked luciferase assay)
Format: biochemical
Settings: for HSD17B13 Enzymatic Activity Relative Light Units: 500 μM NAD+, 100 ng enzyme, 3 hours at 23° C.; for HSD17B13 Enzymatic Activity Percent Estradiol Control: normalized to 50 μM estradiol after subtraction of 5% DMSO
Procedure, shortened: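 Substrates (bioactive lipids 5 μM, steroids 50 μM; 5% DMSO) tested with 500 μM NAD+ and 100 ng recombinant human HSD17B13 in 0.2 M Tris-HCl pH 7.5, 3 h, 23° C. Luminescent NADH detection followed 1 h later; RLU normalized to estradiol (50 μM, 100%) and DMSO (0%) controls.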

[1] = Bioactive Lipid Library, 5 μM bioactive lipid (Estradiol Control 50 μM)
[2] = Bioactive Lipid Library, 5 μM bioactive lipid

| SMILES | HSD17B13 Enzymatic Activity Relative Light Units [1] [RLU] | HSD17B13 Enzymatic Activity Percent Estradiol Control [2] [%] | HSD17B13 Enzymatic Activity Relative Light Units (Steroid Library, 50 μM steroid) [RLU] | HSD17B13 Enzymatic Activity Percent Estradiol Control (Steroid Library, 50 μM steroid) [%] |
| --- | --- | --- | --- | --- |
| C[C@@H](O)CCC[C@@H](O)/C=C/[C@H]1[C@H](O)CC(=O)[C@@H]1CCCCCCC(=O)O [15(R),19(R)-hydroxy Prostaglandin E1] | 333200 | 3.96 |  |  |
| C[C@@H](O)CCC[C@@H](O)/C=C/[C@H]1[C@H](O)CC(=O)[C@@H]1C/C=C\CCCC(=O)O [15(R),19(R)-hydroxy Prostaglandin E2] | 346000 | 4.97 |  |  |
| C[C@@H](O)CCC[C@@H](O)/C=C/[C@@H]1[C@@H](C/C=C\CCCC(=O)O)[C@@H](O)C[C@H]1O [15(R),19(R)-hydroxy Prostaglandin F2α] | 382720 | 7.88 |  |  |
| CCCCC[C@@H](O)/C=C/C=C\CCCCCCCCCC(=O)O [15(R)-HEDE] | 1862960 | 117.20 |  |  |
| CCCCC[C@@H](O)/C=C/C=C\C/C=C\C/C=C\CCCC(=O)O [15(R)-HETE] | 701120 | 61.00 |  |  |
| CC(C)OC(=O)CCC/C=C\C[C@@H]1[C@@H](/C=C/[C@H](O)COc2cccc(C(F)(F)F)c2)[C@H](O)C[C@@H]1O [15(S)-Fluprostenol isopropyl ester] | 410960 | 10.11 |  |  |
| CCCCC[C@H](O)/C=C/C=C\CCCCCCCCCC(=O)O [15(S)-HEDE] | 1060680 | 57.54 |  |  |
| CC/C=C\C[C@H](O)/C=C/C=C\C/C=C\C/C=C\CCCC(=O)O [15(S)-HEPE] | 505240 | 16.24 |  |  |
| CCCCC[C@H](O)/C=C/C=C\C/C=C\C/C=C\CCCC(=O)NCCO [15(S)-HETE Ethanolamide] | 535680 | 19.97 |  |  |
| CCCCC[C@H](O)/C=C/C=C\C/C=C\C/C=C\CCCC(=O)O [15(S)-HETE] | 1107240 | 24.49 |  |  |
| CCCCC[C@H](O)/C=C/C=C\C/C=C\CCCCCCC(=O)O [15(S)-HETrE] | 638320 | 26.14 |  |  |
| CCCCC[C@@H](/C=C/C=C\CCCCCCCCCC(=O)O)OO [15(S)-HpEDE] | 232720 | −4.02 |  |  |
| CC/C=C\C[C@@H](/C=C/C=C\C/C=C\C/C=C\CCCC(=O)O)OO [15(S)-HpEPE] | 316200 | 2.18 |  |  |
| CCCCCC(=O)/C=C/C=C\CCCCCCCCCC(=O)O [15-OxoEDE] | 261480 | −1.88 |  |  |
| CCCCCC(=O)/C=C/C=C\C/C=C\C/C=C\CCCC(=O)O [15-OxoETE] | 616120 | −8.98 |  |  |
| CCCCC(C)(C)[C@H](O)/C=C/[C@H]1[C@H](O)CC(=O)[C@@H]1C/C=C\CCCC(=O)Oc1ccc(NC(=O)c2ccc(NC(C)=O)cc2)cc1 [16,16-dimethyl Prostaglandin E2 p-(p-acetamidobenzamido) phenyl ester] | 322280 | 3.10 |  |  |
| CC1(C)[C@@H](O)CC[C@]2(C)[C@H]3C(=O)C=C4[C@@H]5C[C@@](C)(C(=O)O)CC[C@]5(C)CC[C@@]4(C)[C@]3(C)CC[C@@H]12 [18beta-Glycyrrhetinic acid] |  |  | 32720 | −2.23 |
| C[C@@H](O)CCC[C@H](O)/C=C/[C@H]1C=CC(=O)[C@@H]1C/C=C\CCCC(=O)O [19(R)-hydroxy Prostaglandin A2] | 323320 | 3.18 |  |  |
| C[C@@H](O)CCC[C@H](O)/C=C/[C@H]1[C@H](O)CC(=O)[C@@H]1CCCCCCC(=O)O [19(R)-hydroxy Prostaglandin E1] | 333160 | 3.96 |  |  |
| C[C@@H](O)CCC[C@H](O)/C=C/[C@H]1[C@H](O)CC(=O)[C@@H]1C/C=C\CCCC(=O)O [19(R)-hydroxy Prostaglandin E2] | 347280 | 5.07 |  |  |

| SMILES | HSD17B13 Enzymatic Activity Relative Light Units [1] [RLU] | HSD17B13 Enzymatic Activity Percent Estradiol Control [2] [%] | HSD17B13 Enzymatic Activity Relative Light Units (Steroid Library, 50 μM steroid) [RLU] | HSD17B13 Enzymatic Activity Percent Estradiol Control (Steroid Library, 50 μM steroid) [%] |
| --- | --- | --- | --- | --- |
| C[C@@H](O)CCC[C@H](O)/C=C/[C@@H]1[C@@H](CCCCCCC(=O)O)[C@@H](O)C[C@H]1O [19(R)-hydroxy Prostaglandin F1α] | 207560 | −5.97 |  |  |
| C[C@@H](O)CCC[C@H](O)/C=C/[C@@H]1[C@@H](C/C=C\CCCC(=O)O)[C@@H](O)C[C@H]1O [19(R)-hydroxy Prostaglandin F2α] | 371400 | 6.98 |  |  |
| O=C(CCC/C=C\C/C=C\C/C=C\C/C=C\CCCCCO)NCCO [20-HETE Ethanolamide] | 879760 | 41.89 |  |  |
| O=C(O)CCC/C=C\C/C=C\C/C=C\C/C=C\CCCCCO [20-HETE] | 332640 | 0.57 |  |  |
| O=C(O)CCC/C=C\C/C=C\C/C=C\C/C=C\CCCCCC(=O)O [20-carboxy Arachidonic Acid] | 293760 | −2.36 |  |  |
| O=C(O)CCCC/C=C\C[C@@H](O)/C=C/C=C/C=C\[C@@H](O)CCCC(=O)O [20-carboxy Leukotriene B4] | 400440 | 9.28 |  |  |
| O=C(O)CCC[C@H](O)\C=C/C=C/C=C/[C@H](O)C/C=C\CCCCCO [20-hydroxy Leukotriene B4] | 654120 | 29.33 |  |  |
| O=C(O)CCC/C=C\C[C@H]1C(=O)C[C@@H](O)[C@@H]1/C=C/[C@@H](O)CCCCCO [20-hydroxy Prostaglandin E2] | 348240 | 5.15 |  |  |
| O=C(O)CCC/C=C\C[C@@H]1[C@@H](/C=C/[C@@H](O)CCCCCO)[C@H](O)C[C@@H]1O [20-hydroxy Prostaglandin F2α] | 378680 | 7.56 |  |  |
| C[C@]12C[C@H]3S[C@H]3C[C@@H]1CC[C@@H]1[C@@H]2CC[C@@]2(C)[C@H]1CC[C@@]2(C)O [(2a,3a,52,17b)-Androstan-17ol,2,3-epithio-17-methyl] |  |  | 100160 | −1.06 |
| C[C@]12CCC(=O)C=C1CC[C@@H]1[C@@H]2[C@@H](O)C[C@]2(C=O)[C@@H](C(=O)CO)CC[C@@H]12 [Aldosterone] |  |  | 217400 | 0.99 |
| C[C@]12CCC(=O)C[C@@H]1CC[C@@H]1[C@@H]2CC[C@]2(C)[C@@H](OC(=O)c3ccccc3)CC[C@@H]12 [Androstanolone 17-benzoate] |  |  | 217200 | 0.99 |
| C[C@]12CCC(=O)C=C1CC[C@@H]1[C@@H]2CC[C@]2(C)C(=O)CC[C@@H]12 [Androstenedione] |  |  | 172400 | 0.21 |
| O=c1cc(-c2ccc(O)cc2)oc2cc(O)cc(O)c12 [Apigenin] |  |  | 24440 | −2.38 |
| CC[C@H](CC[C@@H](C)[C@H]1CC[C@H]2[C@@H]3CC=C4C[C@@H](O)CC[C@]4(C)[C@H]3CC[C@]12C)C(C)C [Beta-sitosterol] |  |  | 168880 | 0.14 |
| CCCCC[C@H](O)/C=C/[C@@H]1[C@H]2C/C(=C/CCCC(=O)O)C[C@H]2C[C@H]1O [Carbaprostacyclin] | 380280 | 7.68 |  |  |
| CCCCC[C@H](O)/C=C/[C@H]1CC2CC(C2)[C@@H]1C/C=C\CCCC(=O)O [Carbocyclic Thromboxane A2] | 309000 | 2.05 |  |  |
| CCCCC[C@H](O)/C=C/[C@H]1[C@H](O)C[C@]2(C)C/C(=C\CCCC(=O)[O-])C[C@H]12.CCCCC[C@H](O)/C=C/[C@H]1[C@H](O)C[C@]2(C)C/C(=C\CCCC(=O)[O-])C[C@H]12.[Ca+2] [Ciprostene (calcium salt)] | 360560 | 6.12 |  |  |
| C[C@]12C[C@H](O)[C@H]3[C@@H](CCC4=CC(=O)CC[C@@]43C)[C@@H]1CC[C@@H]2C(=O)CO [Corticosterone] |  |  | 215320 | 0.96 |
| C[C@]12CCC(=O)C=C1CC[C@@H]1[C@@H]2[C@@H](O)C[C@@]2(C)[C@H]1CC[C@]2(O)C(=O)CO [Cortisol] |  |  | 40080 | −2.10 |
